Source: patent US11555012B2 (Nimbus Artemis, Inc., priority 2018, dated 2023)

Assays:
[1] = target: T1, ACL (Homo sapiens (Human), UniProt P53396); test: ADP-Glo Assay
Target sequence in this assay (P53396 other isoform, or with tags, fused parts or gaps isoform P53396-2): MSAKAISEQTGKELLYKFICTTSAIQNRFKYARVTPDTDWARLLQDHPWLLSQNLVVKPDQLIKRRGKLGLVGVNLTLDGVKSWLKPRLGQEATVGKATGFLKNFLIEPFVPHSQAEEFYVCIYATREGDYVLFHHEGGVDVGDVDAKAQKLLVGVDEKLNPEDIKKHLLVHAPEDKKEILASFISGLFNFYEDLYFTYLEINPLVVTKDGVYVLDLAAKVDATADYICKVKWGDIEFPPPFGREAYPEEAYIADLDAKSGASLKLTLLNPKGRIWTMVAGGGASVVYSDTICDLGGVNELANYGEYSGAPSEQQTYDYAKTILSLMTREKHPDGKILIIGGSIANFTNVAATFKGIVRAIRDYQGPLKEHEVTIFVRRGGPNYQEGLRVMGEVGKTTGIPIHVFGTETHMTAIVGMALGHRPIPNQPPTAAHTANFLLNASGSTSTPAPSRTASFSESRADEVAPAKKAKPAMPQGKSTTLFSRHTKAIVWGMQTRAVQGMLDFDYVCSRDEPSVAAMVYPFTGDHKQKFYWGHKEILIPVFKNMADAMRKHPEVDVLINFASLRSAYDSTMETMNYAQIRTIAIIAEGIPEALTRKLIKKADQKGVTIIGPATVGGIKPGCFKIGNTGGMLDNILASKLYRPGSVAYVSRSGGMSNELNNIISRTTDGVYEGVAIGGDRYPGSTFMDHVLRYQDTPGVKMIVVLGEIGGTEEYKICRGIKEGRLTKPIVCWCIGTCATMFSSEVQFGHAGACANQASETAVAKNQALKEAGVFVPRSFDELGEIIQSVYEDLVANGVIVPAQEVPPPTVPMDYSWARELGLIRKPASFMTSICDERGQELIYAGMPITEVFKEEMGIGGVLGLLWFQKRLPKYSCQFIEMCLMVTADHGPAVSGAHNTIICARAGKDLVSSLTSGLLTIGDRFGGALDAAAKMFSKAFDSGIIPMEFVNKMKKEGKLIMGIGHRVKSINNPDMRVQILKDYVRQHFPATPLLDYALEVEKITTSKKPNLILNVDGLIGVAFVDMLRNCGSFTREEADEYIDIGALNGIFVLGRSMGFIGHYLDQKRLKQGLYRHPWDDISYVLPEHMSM

[2] = target: T1, ACL; test: ACLY-MDH Coupled Assay
Target sequence in this assay (P53396 whole entry, species assumed): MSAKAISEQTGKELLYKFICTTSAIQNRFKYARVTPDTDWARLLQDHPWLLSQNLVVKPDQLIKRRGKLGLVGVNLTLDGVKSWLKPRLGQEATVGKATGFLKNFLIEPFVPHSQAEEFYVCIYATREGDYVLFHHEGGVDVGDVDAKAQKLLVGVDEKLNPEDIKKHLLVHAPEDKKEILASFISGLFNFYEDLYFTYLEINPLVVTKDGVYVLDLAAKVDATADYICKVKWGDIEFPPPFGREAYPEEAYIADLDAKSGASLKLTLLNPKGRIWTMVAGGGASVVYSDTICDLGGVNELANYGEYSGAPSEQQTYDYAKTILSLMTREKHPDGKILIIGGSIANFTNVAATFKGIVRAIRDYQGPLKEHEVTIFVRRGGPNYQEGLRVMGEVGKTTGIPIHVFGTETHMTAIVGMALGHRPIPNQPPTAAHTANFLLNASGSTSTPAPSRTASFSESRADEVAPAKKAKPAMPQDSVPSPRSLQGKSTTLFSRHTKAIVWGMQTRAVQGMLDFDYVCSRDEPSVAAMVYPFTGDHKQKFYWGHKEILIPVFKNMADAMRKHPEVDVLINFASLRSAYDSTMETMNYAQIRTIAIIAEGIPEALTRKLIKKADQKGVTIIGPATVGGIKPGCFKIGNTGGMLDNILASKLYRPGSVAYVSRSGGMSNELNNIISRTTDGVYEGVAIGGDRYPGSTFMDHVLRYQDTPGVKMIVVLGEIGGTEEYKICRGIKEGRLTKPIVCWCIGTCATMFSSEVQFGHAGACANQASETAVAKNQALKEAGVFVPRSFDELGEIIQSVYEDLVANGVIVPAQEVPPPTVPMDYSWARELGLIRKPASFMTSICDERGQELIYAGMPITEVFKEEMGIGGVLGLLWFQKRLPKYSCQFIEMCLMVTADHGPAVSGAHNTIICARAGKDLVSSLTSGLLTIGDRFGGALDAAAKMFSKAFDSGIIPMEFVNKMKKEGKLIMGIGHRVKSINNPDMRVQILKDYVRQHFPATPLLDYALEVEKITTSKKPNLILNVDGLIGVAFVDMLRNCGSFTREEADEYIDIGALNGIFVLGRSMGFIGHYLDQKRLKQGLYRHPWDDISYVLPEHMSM
Description: Compounds of the present invention were evaluated in an ACLY Coupled Assay.
The assay protocol for the Coupled Assay (below) was followed:
b) Add 1 μL cpds to 96 assay plate, Test cpd conc: 100/30/10 μM top dose, 3 folds dilution, 10+0+control (control: buffer without ACL+DMSO) points, 1000 rpm for 1 min, incubation at 25° C. for 60 min

[3] = read-out: ACL-ADP-Glo (IC50), 3 nM ACL, 15 μM ATP, 3 μM CoA, 300 μM Citrate
[4] = read-out: ACL-MDH Coupled Assay (IC50), 8 nM ACL, 60 μM CoA Na2, 85 μM Citrate, 250 μM ATP, 250 μM NADH

| SMILES | IC50 [1, 3] [nM] | IC50 [2, 4] [nM] | IC50 [2] [nM] | IC50 [1] [nM] |
| --- | --- | --- | --- | --- |
| O=C(c1cc(Cl)c(O)c(S(=O)(=O)Nc2cc(-c3ccccc3)c(F)cc2F)c1)N1CC[C@H](O)C1 [I-105, (S)-3-chloro-N-(4,6-difluoro-[1,1′-biphenyl]-3-yl)-2-hydroxy-5-(3-hydroxypyrrolidine-1-carbonyl)benzenesulfonamide] | < 50 | < 50 |  |  |
| O=C(c1cc(Cl)c(O)c(S(=O)(=O)Nc2cc(-c3ccccc3)c(F)cc2F)c1)N1CC[C@@H](O)C1 [I-106, (R)-3-chloro-N-(4,6-difluoro-[1,1′-biphenyl]-3-yl)-2-hydroxy-5-(3-hydroxypyrrolidine-1-carbonyl)benzenesulfonamide] | < 50 |  | 50 to 500 |  |
| O=C(O)c1cc(Cl)c(O)c(S(=O)(=O)Nc2cc(-c3ccccc3)ccc2F)c1 [I-107, 3-chloro-5-[(2-fluoro-5-phenylphenyl)sulfamoyl]-4-hydroxybenzoic Acid] |  |  | 500 to 30000 | 500 to 20000 |
| CC(=O)NCCOC(=O)c1cc(Cl)c(O)c(S(=O)(=O)Nc2cc(-c3ccccc3)c(F)cc2F)c1 [I-112, 2-acetamidoethyl 3-chloro-5-(N-(4,6-difluoro-[1,1′-biphenyl]-3-yl)sulfamoyl)-4-hydroxybenzoate] | < 50 |  | 50 to 500 |  |
| O=C(O)c1cc(Cl)c(O)c(S(=O)(=O)Nc2cc(-c3ccccc3)cc(F)c2F)c1 [I-115, 3-chloro-5-[(2,3-difluoro-5-phenylphenyl)sulfamoyl]-4-hydroxybenzoic Acid] |  |  | 500 to 30000 | 500 to 20000 |
| O=C(c1cc(Cl)c(O)c(S(=O)(=O)Nc2cc(-c3ccccc3)c(F)cc2F)c1)N1CC[C@H](F)C1 [I-118, (S)-3-chloro-N-(4,6-difluoro-[1,1′-biphenyl]-3-yl)-5-(3-fluoropyrrolidin-1-carbonyl)-2-hydroxybenzenesulfonamide] | < 50 |  | 50 to 500 |  |
| O=C(c1cc(Cl)c(O)c(S(=O)(=O)Nc2cc(-c3ccccc3)c(F)cc2F)c1)N1CC[C@@H](F)C1 [I-119, (R)-3-chloro-N-(4,6-difluoro-[1,1′-biphenyl]-3-yl)-5-(3-fluoropyrrolidine-1-carbonyl)-2-hydroxybenzenesulfonamide] | < 50 |  | 50 to 500 |  |
| CS(=O)(=O)c1cc(Cl)c(O)c(S(=O)(=O)Nc2cc(-c3ccccc3)c(F)cc2F)c1 [I-124, 3-chloro-N-[4,6-difluoro-[1,1-biphenyl]-3-yl]-2-hydroxy-5-methanesulfonylbenzene-1-sulfonamide] |  |  | 50 to 500 | 50 to 500 |
| O=C(c1cc(Cl)c(O)c(S(=O)(=O)Nc2cc(-c3ccccc3)c(F)cc2F)c1)N1CC(O)C1 [I-129, 3-chloro-N-(4,6-difluoro-[1,1′-biphenyl]-3-yl)-2-hydroxy-5-(3-hydroxyazetidine-1-carbonyl)benzenesulfonamide] | < 50 |  | 50 to 500 |  |
| O=C(c1cc(Cl)c(O)c(S(=O)(=O)Nc2cc(-c3ccccc3)c(F)cc2F)c1)N1CC(F)C1 [I-130, 3-chloro-N-(4,6-difluoro-[1,1′-biphenyl]-3-yl)-5-(3-fluoroazetidine-1-carbonyl)-2-hydroxybenzenesulfonamide] | < 50 | < 50 |  |  |
| COc1ccc(-c2ccccc2)cc1NS(=O)(=O)c1cc(-c2nccn2C)cc(Cl)c1O [I-131, 3-chloro-2-hydroxy-N-[4-methoxy-[1,1-biphenyl]-3-yl]-5-(1-methyl-1H-imidazol-2-yl)benzene-1-sulfonamide] |  |  | 50 to 500 | 50 to 500 |
| Cn1ccnc1-c1cc(Cl)c(O)c(S(=O)(=O)Nc2cc(-c3ccccc3)ccc2O)c1 [I-133, 3-chloro-2-hydroxy-N-(4-hydroxy-[1,1′-biphenyl]-3-yl)-5-(1-methyl-1H-imidazol-2-yl)benzenesulfonamide] |  |  | 500 to 30000 | 50 to 500 |
| CC(C)n1c(NS(=O)(=O)c2cc(Cl)cc(Cl)c2O)c(-c2ccc(F)cc2)c2ccccc21 [I-134, 3,5-dichloro-N-(3-(4-fluorophenyl)-1-isopropyl-1H-indol-2-yl)-2-hydroxybenzenesulfonamide] |  |  | 500 to 30000 | 500 to 20000 |
| O=C(c1cc(Cl)c(O)c(S(=O)(=O)Nc2cc(C3CC3)c(F)cc2F)c1)N1CCC1 [I-137, 5-(azetidine-1-carbonyl)-3-chloro-N-(5-cyclopropyl-2,4-difluorophenyl)-2-hydroxybenzene-1-sulfonamide] |  |  | 50 to 500 | 50 to 500 |
| O=C(Nc1cc(-c2ccccc2)c(F)cc1F)c1cc(Br)cc(Cl)c1O [I-139, 5-bromo-3-chloro-N-(4,6-difluoro-[1,1′-biphenyl]-3-yl)-2-hydroxybenzamide] |  |  | 500 to 30000 | 500 to 20000 |
| CO[C@@H]1CCN(C(=O)c2cc(Cl)c(O)c(S(=O)(=O)Nc3cc(-c4ccccc4)ccc3F)c2)C1 [I-141, 3-chloro-N-[4-fluoro-[1,1-biphenyl]-3-yl]-2-hydroxy-5-[(3R)-3-methoxypyrrolidine-1-carbonyl]benzene-1-sulfonamide] |  |  | 500 to 30000 | 50 to 500 |

| SMILES | IC50 [1, 3] [nM] | IC50 [2, 4] [nM] | IC50 [2] [nM] | IC50 [1] [nM] |
| --- | --- | --- | --- | --- |
| CO[C@H]1CCN(C(=O)c2cc(Cl)c(O)c(S(=O)(=O)Nc3cc(-c4ccccc4)ccc3F)c2)C1 [I-142, 3-chloro-N-[4-fluoro-[1,1-biphenyl]-3-yl]-2-hydroxy-5-[(3S)-3-methoxypyrrolidine-1-carbonyl]benzene-1-sulfonamide] | < 50 | < 50 |  |  |
| O=C(O)COc1c(Cl)cc(Cl)cc1S(=O)(=O)Nc1cc(-c2ccccc2)ccc1F [I-143] |  |  | 500 to 30000 | 500 to 20000 |
| COc1ccc(-c2cccnc2)cc1NS(=O)(=O)c1cc(C(=O)N2CCC2)cc(Cl)c1O [I-144, 5-(azetidine-1-carbonyl)-3-chloro-2-hydroxy-N-[2-methoxy-5-(pyridin-3-yl)phenyl]benzene-1-sulfonamide] |  |  | 500 to 30000 | 50 to 500 |
| COC(=O)c1cc(Cl)c(O)c(C(=O)Nc2cc(-c3ccccc3)c(F)cc2F)c1 [I-146, methyl 3-chloro-5-((4,6-difluoro-[1,1′-biphenyl]-3-yl)carbamoyl)-4-hydroxybenzoate] |  |  | 500 to 30000 | 500 to 20000 |
| C[C@@]1(O)CCN(C(=O)c2cc(Cl)c(O)c(S(=O)(=O)Nc3cc(-c4ccccc4)c(F)cc3F)c2)C1 [I-148, (R)-3-chloro-N-(4,6-difluoro-[1,1′-biphenyl]-3-yl)-2-hydroxy-5-(3-hydroxy-3-methylpyrrolidine-1-carbonyl)benzenesulfonamide] | < 50 | < 50 |  |  |
| C[C@]1(O)CCN(C(=O)c2cc(Cl)c(O)c(S(=O)(=O)Nc3cc(-c4ccccc4)c(F)cc3F)c2)C1 [I-149, (S)-3-chloro-N-(4,6-difluoro-[1,1′-biphenyl]-3-yl)-2-hydroxy-5-(3-hydroxy-3-methylpyrrolidine-1-carbonyl)benzenesulfonamide] | < 50 |  | 50 to 500 |  |
| CC(C)C(=O)Oc1c(Cl)cc(C(=O)N2CCC2)cc1S(=O)(=O)Nc1cc(-c2ccccc2)c(F)cc1F [I-158, 4-(azetidine-1-carbonyl)-2-chloro-6-([4,6-difluoro-[1,1-biphenyl]-3-yl]sulfamoyl)phenyl 2-methylpropanoate] |  |  | 50 to 500 | 50 to 500 |
| O=C(c1cc(Cl)c(O)c(S(=O)(=O)Nc2cc(-c3ccccc3)cc(F)c2F)c1)N1CCCC1 [I-159, 3-chloro-N-[4,5-difluoro-[1,1-biphenyl]-3-yl]-2-hydroxy-5-(pyrrolidine-1-carbonyl)benzene-1-sulfonamide] | < 50 | < 50 |  |  |
| O=C(c1cc(Cl)c(O)c(S(=O)(=O)Nc2cc(-c3ccccc3)cc(F)c2F)c1)N1CCC1 [I-160, 5-(azetidine-1-carbonyl)-3-chloro-N-[4,5-difluoro-[1,1-biphenyl]-3-yl]-2-hydroxybenzene-1-sulfonamide] | < 50 | < 50 |  |  |
| CC(=O)NC1CN(C(=O)c2cc(Cl)c(O)c(S(=O)(=O)Nc3cc(-c4ccccc4)c(F)cc3F)c2)C1 [I-162, N-[1-[3-chloro-5-([4,6-difluoro-[1,1-biphenyl]-3-yl]sulfamoyl)-4-hydroxybenzoyl]azetidin-3-yl]acetamide] |  |  | 500 to 30000 | 50 to 500 |
| O=C(O)COc1c(Br)cc(C(=O)N2CCC2)cc1S(=O)(=O)Nc1cc(-c2ccccc2)ccc1F [I-192, 2-(4-(azetidine-1-carbonyl)-2-bromo-6-(N-(4-fluoro-[1,1′-biphenyl]-3-yl)sulfamoyl)phenoxy)acetic Acid] |  |  | 500 to 30000 | 500 to 20000 |
| O=C(c1cc(Cl)c(O)c(S(=O)(=O)Nc2cc(C3CC3)c(F)cc2F)c1)N1CCCC1 [I-193, 3-chloro-N-(5-cyclopropyl-2,4-difluorophenyl)-2-hydroxy-5-(pyrrolidine-1-carbonyl)benzene-1-sulfonamide] |  |  | 500 to 30000 | 500 to 20000 |
| O=C(c1cc(Cl)c(O)c(S(=O)(=O)Nc2cc(C3CC3)c(F)cc2F)c1)N1CC(F)C1 [I-194, 3-chloro-N-(5-cyclopropyl-2,4-difluorophenyl)-5-(3-fluoroazetidine-1-carbonyl)-2-hydroxybenzene-1-sulfonamide] |  |  | 500 to 30000 | 50 to 500 |
| O=C(c1cc(Cl)c(O)c(S(=O)(=O)Nc2cc(-c3cccnc3)c(F)cc2F)c1)N1CCC1 [I-197, 5-(azetidine-1-carbonyl)-3-chloro-N-[2,4-difluoro-5-(pyridin-3-yl)phenyl]-2-hydroxybenzene-1-sulfonamide] |  |  | 500 to 30000 | 50 to 500 |
| NC1CN(C(=O)c2cc(Cl)c(O)c(S(=O)(=O)Nc3cc(-c4ccccc4)c(F)cc3F)c2)C1 [I-200, 5-(3-aminoazetidine-1-carbonyl)-3-chloro-N-[4,6-difluoro-[1,1-biphenyl]-3-yl]-2-hydroxybenzene-1-sulfonamide] | < 50 |  | 50 to 500 |  |
| CC(C)(C)OC(=O)NC1CN(C(=O)c2cc(Cl)c(O)c(S(=O)(=O)Nc3cc(-c4ccccc4)c(F)cc3F)c2)C1 [I-201, tert-butyl N-[1-[3-chloro-5-([4,6-difluoro-[1,1-biphenyl]-3-yl]sulfamoyl)-4-hydroxybenzoyl]azetidin-3-yl]carbamate] |  |  | 500 to 30000 | 500 to 20000 |
